Results published in ChEMBL document CHEMBL1275424, “In vitro activity of anidulafungin against Candida albicans biofilms” (2008).
In brackets after ≈: the same amount, converted by molar mass. Numbered stars: 1 amine (or outer) side, 2 acyl side, 3 side chain; on linkers, the order of the positions; unused ones are H or OH. Bridge positions count the residues as written; N and C are the ends. Square brackets hold non-standard residues; d marks the D form. Peptide text beside a SMILES is read from it. * marks the point of attachment. pTerphenylCO(4''-OnC5H11) = CCCCCOc1ccc(-c2ccc(-c3ccc(C(=O)*)cc3)cc2)cc1; Orn(4R-OH,5R-OH) = O=C([C@H](C[C@@H](O)[C@@H](O)N[*:3])N[*:1])[*:2]; hTyr(3S-OH,4S-OH) = N[C@H](C(=O)O)[C@H](O)[C@@H](O)c1ccc(O)cc1; Pro(3S-OH,4S-Me) = C[C@H]1CN[C@H](C(=O)O)[C@H]1O; Hyp = O=C(O)[C@@H]1C[C@@H](O)CN1

Assays:
Format in all cases: functional
Candida albicans [1] = experiment: Antimicrobial activity against Candida albicans grown as planktonic cell by broth microdilution method
Candida albicans [2] = experiment: Antimicrobial activity against Candida albicans grown as planktonic cell after 48 hrs by broth microdilution method
Candida albicans [3] = experiment: Antimicrobial activity against Candida albicans grown as sessile cell after 48 hrs by broth microdilution method
Candida albicans [4] = experiment: Antimicrobial activity against Candida albicans grown as planktonic cell after 24 hrs by broth microdilution method
Candida albicans [5] = experiment: Antimicrobial activity against Candida albicans GDH2346 grown as sessile cell after 48 hrs by broth microdilution method; conditions: GDH2346, 48 h

C[C@@H](c1ncncc1F)[C@](O)(Cn1cncn1)c1ccc(F)cc1F [VORICONAZOLE]
MIC90 (Candida albicans [1]): > 0.06 µg/mL

CCCCCOc1ccc(-c2ccc(-c3ccc(C(=O)N[C@H]4C[C@@H](O)[C@@H](O)NC(=O)[C@@H]5[C@@H](O)[C@@H](C)CN5C(=O)[C@H]([C@@H](C)O)NC(=O)[C@H]([C@H](O)[C@@H](O)c5ccc(O)cc5)NC(=O)[C@@H]5C[C@@H](O)CN5C(=O)[C@H]([C@@H](C)O)NC4=O)cc3)cc2)cc1 [ANIDULAFUNGIN] ({pTerphenylCO(4''-OnC5H11)}-[Orn(4R-OH,5R-OH)]T[Hyp][hTyr(3S-OH,4S-OH)]T[Pro(3S-OH,4S-Me)]; lactam 1-C)
MIC (Candida albicans [2]): ≤ 0.5 µg/mL | MIC (Candida albicans [3]): > 0.03 µg/mL | MIC (Candida albicans [1]): ≤ 0.03 µg/mL | MIC50 (Candida albicans [1]): ≤ 0.03 µg/mL | MIC90 (Candida albicans [1]): 0.125 µg/mL (≈ 0.11 µM) | MIC (Candida albicans [4]): 0.125 µg/mL (≈ 0.11 µM) | MIC (Candida albicans [5]): ≤ 0.03 µg/mL

C[C@@H]1[C@H](O)[C@@H](C)/C=C/C=C/C=C/C=C/C=C/C=C/C=C/[C@H](O[C@@H]2O[C@H](C)[C@@H](O)[C@H](N)[C@@H]2O)C[C@@H]2O[C@](O)(C[C@@H](O)C[C@@H](O)[C@H](O)CC[C@@H](O)C[C@@H](O)CC(=O)O[C@H]1C)C[C@H](O)[C@H]2C(=O)O [AMPHOTERICIN B]
MIC90 (Candida albicans [1]): 0.25 µg/mL (≈ 0.271 µM)

CC[C@H](C)C[C@H](C)CCCCCCCCC(=O)N[C@H]1C[C@@H](O)[C@@H](NCCN)NC(=O)[C@@H]2[C@@H](O)CCN2C(=O)[C@H]([C@H](O)CCN)NC(=O)[C@H]([C@H](O)[C@@H](O)c2ccc(O)cc2)NC(=O)[C@@H]2C[C@@H](O)CN2C(=O)[C@H]([C@@H](C)O)NC1=O [CASPOFUNGIN]
MIC90 (Candida albicans [1]): 0.5 µg/mL (≈ 0.457 µM)
